This note sets out measurements from patent US20250026752A1, “POSITIVE ALLOSTERIC MODULATORS OF THE MUSCARINIC ACETYLCHOLINE RECEPTOR M4” (Vanderbilt University, priority 2021, published 2025).

The structures appear in SMILES notation.

This experiment addresses T1, human mAChR M4 (Homo sapiens, UniProt P08173).
T1 construct: expressed in transfected cells; host or cells: CHO-K1 (ATCC), stably expressing hM4 and Gqi5
T1 sequence (P08173 1-479): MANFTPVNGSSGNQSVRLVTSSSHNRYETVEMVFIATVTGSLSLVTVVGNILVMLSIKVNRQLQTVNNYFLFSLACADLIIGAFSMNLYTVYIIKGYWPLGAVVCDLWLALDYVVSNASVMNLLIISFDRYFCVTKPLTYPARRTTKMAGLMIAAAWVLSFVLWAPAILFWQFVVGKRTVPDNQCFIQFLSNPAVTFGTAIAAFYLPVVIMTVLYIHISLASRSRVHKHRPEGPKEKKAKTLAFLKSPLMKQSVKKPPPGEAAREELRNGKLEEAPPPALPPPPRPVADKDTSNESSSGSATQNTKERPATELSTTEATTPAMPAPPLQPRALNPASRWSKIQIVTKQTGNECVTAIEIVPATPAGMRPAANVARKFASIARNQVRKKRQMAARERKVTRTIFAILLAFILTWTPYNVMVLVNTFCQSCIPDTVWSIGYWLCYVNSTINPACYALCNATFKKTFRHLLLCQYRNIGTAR
Nature of the experiment: mAChR M4 cell-based functional assay: calcium flux (Fluo-4, FDSS), positive allosteric modulator activity on the EC20 acetylcholine response, hM4-Gqi5 CHO-K1 cells. Particulars: for Emax at 30 µM: CHO-K1, human M4; for EC50: PAM activity on EC20 acetylcholine response, calcium flux, read-out: Human M4 EC50. The essentials:
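Potentiation was taken as the concentration-dependent rise in the EC20 acetylcholine calcium response, fitted by a four-parameter logistic with EC20 as baseline. Fluo-4-loaded hM4-Gqi5 CHO-K1 cells received 11-point, threefold-diluted compound before acetylcholine at 144 s; FDSS read at 1 Hz.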

Take `Fc1cc2c(N3CCc4ncc(Nc5cccnc5F)cc4C3)nc(Cl)nc2cc1Cl` [Compound 110, 6-(2,7-dichloro-6-fluoro-quinazolin-4-yl)-N-(2-fluoro-3-pyridyl)-7,8-dihydro-5H-1,6-naphthyridin-3-amine]: the Emax (usually the size of the effect at its maximum, as opposed to the concentration needed) at 30 µM (% ACh maximum at 30 μM) was found to be 76%. Also, the EC50 (in general, the midpoint of the concentration-response curve) (human M4) is 3870 nM.

Take `CC(C)n1nccc1-c1cnc2c(c1)CN(c1ncnc3ccc(F)cc13)CC2` [Compound 264, 6-fluoro-4-(3-(1-isopropyl-1H-pyrazol-5-yl)-7,8-dihydro-1,6-naphthyridin-6(5H)-yl)quinazoline]: for the setting “% ACh maximum at 30 μM”, the Emax at 30 µM was determined as 82%. Moreover, for the setting “human M4”, the EC50 was found to be 140 nM.

For `[2H]c1nc2c(cc1N1CCOC(C)(C)C1)CN(c1ncnc3ccc(F)cc13)CC2` [Compound 228, 4-(6-(6-fluoroquinazolin-4-yl)-5,6,7,8-tetrahydro-1,6-naphthyridin-3-yl-2-d)-2,2-dimethylmorpholine], the Emax at 30 µM (% ACh maximum at 30 μM) was determined as 97%. In addition, the EC50 (human M4) amounted to 40 nM.

For `CC1CN(c2ncnc3ccc(Cl)cc23)Cc2cc(N3CCOCC3)cnc21` (stereo not shown) [Compound 253, 4-(6-(6-chloroquinazolin-4-yl)-8-methyl-5,6,7,8-tetrahydro-1,6-naphthyridin-3-yl)morpholine], under “% ACh maximum at 30 μM”, the Emax at 30 µM is 96%. In addition, for the setting “human M4”, the concentration for a half-maximal effect (EC50) turned out to be 30 nM.

With `Cc1ccc2nc(C)nc(N3CCc4ncc(N5CCOc6ncccc65)cc4C3)c2c1` [Compound 99, 1-[6-(2,6-dimethylquinazolin-4-yl)-7,8-dihydro-5H-1,6-naphthyridin-3-yl]-2,3-dihydropyrido[2,3-b][1,4]oxazine], the Emax at 30 µM (% ACh maximum at 30 μM) stood at 101%. Further, where the note is “human M4”, the EC50 came to 100 nM.

For `OC1(C2CC2)CN(c2nc(N3CCc4ncc(N5CCCn6nccc65)cc4C3)c3cccnc3n2)C1` [Compound 248, 3-cyclopropyl-1-(4-(3-(6,7-dihydropyrazolo[1,5-a]pyrimidin-4(5H)-yl)-7,8-dihydro-1,6-naphthyridin-6(5H)-yl)pyrido[2,3-d]pyrimidin-2-yl)azetidin-3-ol], the Emax at 30 µM (% ACh maximum at 30 μM) is 82%. Besides, the EC50 (human M4) turned out to be 300 nM.

On to `CC1(C)CN(c2cnc3c(c2)CN(c2ncnc4ccc(F)cc24)CC3)CCO1` [Compound 103, 4-[6-(6-fluoroquinazolin-4-yl)-7,8-dihydro-5H-1,6-naphthyridin-3-yl]-2,2-dimethyl-morpholine], for which the maximal effect (Emax) at 30 µM (% ACh maximum at 30 μM) was 63%. Under “human M4”, the EC50 worked out at 50 nM.

Consider `CC1CN(c2cnc3c(c2)CN(c2ncnc4ccc(F)cc24)CC3)c2ccnn2C1` (stereo not shown) [Compound 225, 6-fluoro-4-(3-(6-methyl-6,7-dihydropyrazolo[1,5-a]pyrimidin-4(5H)-yl)-7,8-dihydro-1,6-naphthyridin-6(5H)-yl)quinazoline], for which the Emax at 30 µM (% ACh maximum at 30 μM) is 94%. Besides, where the note is “human M4”, the half-maximal effective concentration (EC50) amounted to 70 nM.

Take `Fc1ccc2ncnc(N3CCc4ncc(-c5ccc(C(F)(F)F)nc5)cc4C3)c2c1` [Compound 16, 6-fluoro-4-[3-[6-(trifluoromethyl)-3-pyridyl]-7,8-dihydro-5H-1,6-naphthyridin-6-yl]quinazoline]: the Emax at 30 µM (% ACh maximum at 30 μM) turned out to be 89%. The EC50 (human M4) amounted to 360 nM.

Regarding `Cc1ccc2ncnc(N3CCc4ncc(C(F)(F)F)cc4C3)c2c1` [Compound 131, 6-methyl-4-[3-(trifluoromethyl)-7,8-dihydro-5H-1,6-naphthyridin-6-yl]quinazoline], where the note is “% ACh maximum at 30 μM”, the Emax at 30 µM worked out at 82%. Besides, the EC50 (human M4) is 30 nM.

`Cn1nccc1-c1cnc2c(c1)CN(c1ncnc3cc(F)c(F)cc13)CC2` [Compound 239, 6,7-difluoro-4-(3-(1-methyl-1H-pyrazol-5-yl)-7,8-dihydro-1,6-naphthyridin-6(5H)-yl)quinazoline]: the Emax at 30 µM (% ACh maximum at 30 μM) was 73%. Moreover, the EC50 (human M4) came out at 800 nM.

As to `FC(F)(F)c1cnc2c(c1)CN(c1ncnc3ccc(Br)cc13)CC2` [Compound 136, 6-bromo-4-[3-(trifluoromethyl)-7,8-dihydro-5H-1,6-naphthyridin-6-yl]quinazoline], the Emax at 30 µM (% ACh maximum at 30 μM) was found to be 98%. Further, the EC50 (human M4) was found to be 160 nM.

As to `Cc1cc(F)ncc1-c1cnc2c(c1)CN(c1ncnc3ccc(F)cc13)CC2` [Compound 304, 6-fluoro-4-(3-(6-fluoro-4-methylpyridin-3-yl)-7,8-dihydro-1,6-naphthyridin-6(5H)-yl)quinazoline], the Emax at 30 µM (% ACh maximum at 30 μM) turned out to be 95%. In addition, where the note is “human M4”, the EC50 turned out to be 80 nM.

`Cn1nccc1-c1cnc2c(c1)CN(c1ncnc3ccc(F)cc13)CC2` [Compound 18, 6-fluoro-4-[3-(2-methylpyrazol-3-yl)-7,8-dihydro-5H-1,6-naphthyridin-6-yl]quinazoline]: the Emax at 30 µM (% ACh maximum at 30 μM) came to 70%. Besides, for the setting “human M4”, the EC50 was determined as 40 nM.

Take `CN1CCN(c2nc(N3CCc4ncc(Nc5ccnn5C)cc4C3)c3cc(F)ccc3n2)CC1` [Compound 211, 6-[6-fluoro-2-(4-methylpiperazin-1-yl)quinazolin-4-yl]-N-(2-methylpyrazol-3-yl)-7,8-dihydro-5H-1,6-naphthyridin-3-amine]: where the note is “% ACh maximum at 30 μM”, the Emax at 30 µM is 80%. The half-maximal effective concentration (EC50) (human M4) stood at 470 nM.

On to `Cc1ccc(-c2cnc3c(c2)CN(c2nc(Cl)nc4ncccc24)CC3)cn1` [Compound 36, 2-chloro-4-[3-(6-methyl-3-pyridyl)-7,8-dihydro-5H-1,6-naphthyridin-6-yl]pyrido[2,3-d]pyrimidine], for which the Emax at 30 µM (% ACh maximum at 30 μM) amounted to 69%. Besides, the EC50 (human M4) came out at 650 nM.

Take `Cc1ccc2nc(C3CC3)nc(N3CCc4ncc(-c5cnn(C6CC6)c5)cc4C3)c2c1` [Compound 175, 2-cyclopropyl-4-[3-(1-cyclopropylpyrazol-4-yl)-7,8-dihydro-5H-1,6-naphthyridin-6-yl]-6-methyl-quinazoline]: the Emax at 30 µM (% ACh maximum at 30 μM) was 77%. Besides, for the setting “human M4”, the EC50 turned out to be 560 nM.

As for `Fc1cccc(Oc2cnc3c(c2)CN(c2ncnc4cc(F)c(F)cc24)CC3)c1` [Compound 159, 6,7-difluoro-4-[3-(3-flurophenoxy)-7,8-dihydro-5H-1,6-naphthyridin-6-yl]quinazoline], where the note is “% ACh maximum at 30 μM”, the Emax at 30 µM is 81%. For the same molecule, the EC50 (human M4) turned out to be 680 nM.

Turning to `Cc1nc(N2CCc3ncc(-c4c(C)noc4C)cc3C2)c2cc(F)ccc2n1` [Compound 22, 4-[6-(6-fluoro-2-methyl-quinazolin-4-yl)-7,8-dihydro-5H-1,6-naphthyridin-3-yl]-3,5-dimethyl-isoxazole], under “% ACh maximum at 30 μM”, the Emax at 30 µM was found to be 90%. In addition, under “human M4”, the EC50 is 120 nM.

For `c1cnc2nc(NC3CC3)nc(N3CCc4ncc(N5CCCn6nccc65)cc4C3)c2c1` [Compound 244, N-cyclopropyl-4-(3-(6,7-dihydropyrazolo[1,5-a]pyrimidin-4(5H)-yl)-7,8-dihydro-1,6-naphthyridin-6(5H)-yl)pyrido[2,3-d]pyrimidin-2-amine], for the setting “% ACh maximum at 30 μM”, the Emax at 30 µM turned out to be 70%. Also, the half-maximal effective concentration (EC50) (human M4) worked out at 240 nM.

Consider `Cc1ccc2nc(NC3CCOC3)nc(N3CCc4ncc(C(F)(F)F)cc4C3)c2c1` (stereo not shown) [Compound 207, 6-methyl-N-tetrahydrofuran-3-yl-4-[3-(trifluoromethyl)-7,8-dihydro-5H-1,6-naphthyridin-6-yl]quinazolin-2-amine], for which the Emax at 30 µM (% ACh maximum at 30 μM) worked out at 75%. For the same molecule, the EC50 (human M4) was 440 nM.

For `CC1CN(c2ncnc3ccc(F)cc23)Cc2cc(C(F)(F)F)cnc21` (single isomer, unassigned) [Compound 117, 6-fluoro-4-[(8R or S)-8-methyl-3-(trifluoromethyl)-7,8-dihydro-5H-1,6-naphthyridin-6-yl]quinazoline], for the setting “human M4, % ACh maximum at 30 μM”, the “Emax (%)” value is given as 100%. Under “human M4”, the EC50 came to 400 nM.

With `CC1CN(c2ncnc3ccc(F)cc23)Cc2cc(N(c3cccnc3)c3cccnc3)cnc21` (stereo not shown) [Compound 235, 6-(6-fluoroquinazolin-4-yl)-8-methyl-N,N-di(pyridin-3-yl)-5,6,7,8-tetrahydro-1,6-naphthyridin-3-amine], the Emax at 30 µM (% ACh maximum at 30 μM) was 77%. Moreover, under “human M4”, the half-maximal effective concentration (EC50) was found to be 630 nM.

As for `Cc1cc2n(n1)CCCN2c1cnc2c(c1)CN(c1ncnc3ccc(F)cc13)CC2` [Compound 226, 6-fluoro-4-(3-(2-methyl-6,7-dihydropyrazolo[1,5-a]pyrimidin-4(5H)-yl)-7,8-dihydro-1,6-naphthyridin-6(5H)-yl)quinazoline], the Emax at 30 µM (% ACh maximum at 30 μM) turned out to be 103%. Further, the EC50 (human M4) is 60 nM.

On to `CC(C)(O)CNc1nc(N2CCc3ncc(N4CCCn5nccc54)cc3C2)c2cccnc2n1` [Compound 247, 1-((4-(3-(6,7-dihydropyrazolo[1,5-a]pyrimidin-4(5H)-yl)-7,8-dihydro-1,6-naphthyridin-6(5H)-yl)pyrido[2,3-d]pyrimidin-2-yl)amino)-2-methylpropan-2-ol], for which the Emax at 30 µM (% ACh maximum at 30 μM) turned out to be 80%. Also, for the setting “human M4”, the concentration for a half-maximal effect (EC50) turned out to be 370 nM.

For `Cc1ccc2ncnc(N3CCc4ncc(N5CCOc6ncccc65)cc4C3)c2c1` [Compound 92, 1-[6-(6-methylquinazolin-4-yl)-7,8-dihydro-5H-1,6-naphthyridin-3-yl]-2,3-dihydropyrido[2,3-b][1,4]oxazine], the Emax at 30 µM (% ACh maximum at 30 μM) was determined as 122%. In addition, the EC50 (human M4) was determined as 120 nM.
